# Experiment: Sealed storage of micronised glycopyrrolate batches, physical changes and repeated particle sizing
# Format: physicochemical
# Details: sealed storage for several weeks
# Text: Batches of micronised glycopyrrolate were obtained and, following sealed storage for several weeks, the physical changes of the material from fine cohesive powders to solid agglomerates were observed.
# The following section summarises the tests conducted on reported batches of glycopyrrolate received following micronisation: […]
Compound,Physical state of powder on storage,d50 on repeated particle sizing on storage (micronised powder)
"C[N+]1(C)CCC(OC(=O)C(O)(c2ccccc2)C2CCCC2)C1 (centres unmarked) [Batch B, glycopyrrolate]",large hard lumps of material were found,–
"C[N+]1(C)CCC(OC(=O)C(O)(c2ccccc2)C2CCCC2)C1 (centres unmarked) [Batch A, glycopyrrolate]",soft lumps of material were found in bulk powder,–
"C[N+]1(C)CCC(OC(=O)C(O)(c2ccccc2)C2CCCC2)C1 (centres unmarked) [Batch C, glycopyrrolate]",large hard lumps of material were found in bulk powder,51 μm
"C[N+]1(C)CCC(OC(=O)C(O)(c2ccccc2)C2CCCC2)C1 (centres unmarked) [Remicronised Batch C, glycopyrrolate]",only soft lumps of material were found in bulk powder,–

# Reference: US10695321B2, “Use of glycopyrrolate for treating tachycardia” (Heptares Therapeutics Limited, priority 2011, dated 2020)
